Converted amounts (≈) assume the structure as drawn. Like-named read-outs stand apart in the source and are kept apart here.
Experiments:
Format in all cases: cell-based
Mobiluncus all species = test: Agar dilution MIC (CLSI), Mobiluncus all species
Prevotella bivia = test: Agar dilution MIC (CLSI), Prevotella bivia vaginal isolates; details: for MIC: read-out: Minimal Inhibitory Concentration (MIC)
Peptoniphilus lacrimalis = test: Agar dilution MIC (CLSI), Peptoniphilus lacrimalis vaginal isolates; details: for Number of strains with indicated MIC: 20 samples; for MIC: read-out: Minimal Inhibitory Concentration (MIC)
Anaerococcus tetradius = test: Agar dilution MIC (CLSI), Anaerococcus tetradius vaginal isolates
[1] = Peptoniphilus lacrimalis, # tested 20

## CO[C@H]1/C=C/O[C@@]2(C)Oc3c(C)c(O)c4c(O)c(c5c(nc6cc(C)ccn65)c4c3C2=O)NC(=O)/C(C)=C\C=C\[C@H](C)[C@H](O)[C@@H](C)[C@@H](O)[C@@H](C)[C@H](OC(C)=O)[C@@H]1C [Rifaximin]
Mobiluncus all species
  activity on Mobiluncus species: had activity
Mobiluncus all species; # tested 40
  MIC50: 0.0075 µg/mL (≈ 0.00954 µM)
  MIC90: 0.015 µg/mL (≈ 0.0191 µM)
  MIC Range: 0.0075 to 0.03 µg/mL
Mobiluncus all species; number (%) of isolates, # tested 40
  Susceptible: 40 (100) μg/ml
Prevotella bivia; # tested 34
  MIC Range: 0.125 to 1 µg/mL
Prevotella bivia; Prevotella bivia, isolate 601096 25
  MIC: 0.125 µg/mL (≈ 0.159 µM)
Prevotella bivia; Prevotella bivia, isolate 601166 M
  MIC: 0.125 µg/mL (≈ 0.159 µM)
Prevotella bivia; Prevotella bivia, isolate 601202 21
  MIC: 0.5 µg/mL (≈ 0.636 µM)
Prevotella bivia; Prevotella bivia, isolate 601203 5
  MIC: 0.125 µg/mL (≈ 0.159 µM)
Prevotella bivia; Prevotella bivia, isolate 601209 A1
  MIC: 0.125 µg/mL (≈ 0.159 µM)
Prevotella bivia; Prevotella bivia, isolate 601212 9
  MIC: 0.125 µg/mL (≈ 0.159 µM)
Prevotella bivia; Prevotella bivia, isolate 601213 9A
  MIC: 0.25 µg/mL (≈ 0.318 µM)
Prevotella bivia; Prevotella bivia, isolate 601214 B
  MIC: 0.25 µg/mL (≈ 0.318 µM)
Prevotella bivia; Prevotella bivia, isolate 601241 13
  MIC: 0.125 µg/mL (≈ 0.159 µM)
Prevotella bivia; Prevotella bivia, isolate 601243 15
  MIC: 0.125 µg/mL (≈ 0.159 µM)
Prevotella bivia; Prevotella bivia, isolate 601255 10
  MIC: 0.25 µg/mL (≈ 0.318 µM)
Prevotella bivia; Prevotella bivia, isolate 601261 C
  MIC: 0.25 µg/mL (≈ 0.318 µM)
Prevotella bivia; Prevotella bivia, isolate 601283 20
  MIC: 0.25 µg/mL (≈ 0.318 µM)
Prevotella bivia; Prevotella bivia, isolate 601285 14
  MIC: 0.125 µg/mL (≈ 0.159 µM)
Prevotella bivia; Prevotella bivia, isolate 601293 22
  MIC: 0.25 µg/mL (≈ 0.318 µM)
Prevotella bivia; Prevotella bivia, isolate 601305 H
  MIC: 0.125 µg/mL (≈ 0.159 µM)
Prevotella bivia; Prevotella bivia, isolate 601340 31
  MIC: 0.25 µg/mL (≈ 0.318 µM)
Prevotella bivia; Prevotella bivia, isolate 601355 B
  MIC: 1 µg/mL (≈ 1.27 µM)
Prevotella bivia; Prevotella bivia, isolate 601367 M
  MIC: 0.5 µg/mL (≈ 0.636 µM)
Prevotella bivia; Prevotella bivia, isolate 601374 A1
  MIC: 0.25 µg/mL (≈ 0.318 µM)
Prevotella bivia; Prevotella bivia, isolate 601378 B
  MIC: 0.25 µg/mL (≈ 0.318 µM)
Prevotella bivia; Prevotella bivia, isolate 601379 19
  MIC: 0.25 µg/mL (≈ 0.318 µM)
Prevotella bivia; Prevotella bivia, isolate 601388 T
  MIC: 0.25 µg/mL (≈ 0.318 µM)
Prevotella bivia; Prevotella bivia, isolate 601389 10
  MIC: 0.25 µg/mL (≈ 0.318 µM)
Prevotella bivia; Prevotella bivia, isolate 601389 J
  MIC: 0.25 µg/mL (≈ 0.318 µM)
Prevotella bivia; Prevotella bivia, isolate 601392 14
  MIC: 0.125 µg/mL (≈ 0.159 µM)
Prevotella bivia; Prevotella bivia, isolate 601409 V
  MIC: 0.25 µg/mL (≈ 0.318 µM)
Prevotella bivia; Prevotella bivia, isolate 601410 12
  MIC: 0.25 µg/mL (≈ 0.318 µM)
Prevotella bivia; Prevotella bivia, isolate 601429 1
  MIC: 0.25 µg/mL (≈ 0.318 µM)
Prevotella bivia; Prevotella bivia, isolate 601433 19
  MIC: 0.25 µg/mL (≈ 0.318 µM)
Prevotella bivia; Prevotella bivia, isolate 601449 E
  MIC: 0.5 µg/mL (≈ 0.636 µM)
Prevotella bivia; Prevotella bivia, isolate 601453 A
  MIC: 0.25 µg/mL (≈ 0.318 µM)
Prevotella bivia; Prevotella bivia, isolate 601455 D1
  MIC: 0.25 µg/mL (≈ 0.318 µM)
Prevotella bivia; Prevotella bivia, isolate 601458 16
  MIC: 0.25 µg/mL (≈ 0.318 µM)
Prevotella bivia; Prevotella bivia, # tested 34
  MIC50: 0.25 µg/mL (≈ 0.318 µM)
  MIC90: 0.5 µg/mL (≈ 0.636 µM)
Prevotella bivia; number (%) of isolates, # tested 34
  Susceptible: 34 (100) μg/ml
Peptoniphilus lacrimalis; # tested 20
  MIC Range: 0.00375 to 0.03 µg/mL
Peptoniphilus lacrimalis; MIC 0.00375 μg/ml
  Number of strains with indicated MIC: 2
Peptoniphilus lacrimalis; MIC 0.0075 μg/ml
  Number of strains with indicated MIC: 5
Peptoniphilus lacrimalis; MIC 0.015 μg/ml
  Number of strains with indicated MIC: 12
Peptoniphilus lacrimalis; MIC 0.03 μg/ml
  Number of strains with indicated MIC: 1
Peptoniphilus lacrimalis; Peptoniphilus lacrimalis, isolate 601028V 27A
  MIC: 0.015 µg/mL (≈ 0.0191 µM)
Peptoniphilus lacrimalis; Peptoniphilus lacrimalis, isolate 601060V 32A
  MIC: 0.015 µg/mL (≈ 0.0191 µM)
Peptoniphilus lacrimalis; Peptoniphilus lacrimalis, isolate 601078V O
  MIC: 0.015 µg/mL (≈ 0.0191 µM)
Peptoniphilus lacrimalis; Peptoniphilus lacrimalis, isolate 601084V c
  MIC: 0.015 µg/mL (≈ 0.0191 µM)
Peptoniphilus lacrimalis; Peptoniphilus lacrimalis, isolate 601105V 13
  MIC: 0.015 µg/mL (≈ 0.0191 µM)
Peptoniphilus lacrimalis; Peptoniphilus lacrimalis, isolate 601139V 17
  MIC: 0.015 µg/mL (≈ 0.0191 µM)
Peptoniphilus lacrimalis; Peptoniphilus lacrimalis, isolate 601213V 17
  MIC: 0.015 µg/mL (≈ 0.0191 µM)
Peptoniphilus lacrimalis; Peptoniphilus lacrimalis, isolate 601255V 12
  MIC: 0.015 µg/mL (≈ 0.0191 µM)
Peptoniphilus lacrimalis; Peptoniphilus lacrimalis, isolate 601261V O
  MIC: 0.015 µg/mL (≈ 0.0191 µM)
Peptoniphilus lacrimalis; Peptoniphilus lacrimalis, isolate 601293V 15
  MIC: 0.03 µg/mL (≈ 0.0382 µM)
Peptoniphilus lacrimalis; Peptoniphilus lacrimalis, isolate 601296V N
  MIC: 0.015 µg/mL (≈ 0.0191 µM)
Peptoniphilus lacrimalis; Peptoniphilus lacrimalis, isolate 601305V K-1
  MIC: 0.0075 µg/mL (≈ 0.00954 µM)
Peptoniphilus lacrimalis; Peptoniphilus lacrimalis, isolate 601318V E
  MIC: 0.0075 µg/mL (≈ 0.00954 µM)
Peptoniphilus lacrimalis; Peptoniphilus lacrimalis, isolate 601330V H
  MIC: 0.015 µg/mL (≈ 0.0191 µM)
Peptoniphilus lacrimalis; Peptoniphilus lacrimalis, isolate 601336V 47
  MIC: 0.015 µg/mL (≈ 0.0191 µM)
Peptoniphilus lacrimalis; Peptoniphilus lacrimalis, isolate 601365V 13
  MIC: 0.0075 µg/mL (≈ 0.00954 µM)
Peptoniphilus lacrimalis; Peptoniphilus lacrimalis, isolate 601368V 39
  MIC: 0.0075 µg/mL (≈ 0.00954 µM)
Peptoniphilus lacrimalis; Peptoniphilus lacrimalis, isolate 601375V E
  MIC: 0.0075 µg/mL (≈ 0.00954 µM)
Peptoniphilus lacrimalis; Peptoniphilus lacrimalis, isolate 601388V B
  MIC: 0.00375 µg/mL (≈ 0.00477 µM)
Peptoniphilus lacrimalis; Peptoniphilus lacrimalis, isolate 601401V I
  MIC: 0.00375 µg/mL (≈ 0.00477 µM)
Peptoniphilus lacrimalis; [1]
  MIC50: 0.015 µg/mL (≈ 0.0191 µM)
  MIC90: 0.015 µg/mL (≈ 0.0191 µM)
Anaerococcus tetradius; # tested 21
  MIC Range: 0.00375 to 0.125 µg/mL
Anaerococcus tetradius; Anaerococcus tetradius, isolate 601098V T, read-out: Minimal Inhibitory Concentration (MIC)
  MIC: 0.06 µg/mL (≈ 0.0763 µM)

— patent US20160038468A1 (priority 2013, published 2016)
